According to PMC12392461, “Beyond Estrogenicity: A Comparative Assessment of Bisphenol A and Its Alternatives in In Vitro Assays Questions Safety of Replacements” (Environmental Science & Technology, 2025):
Read-outs that look alike come from different tables or passages of the source.

Assays:
[1] = 15 min
[2] = Abiotic CYP (aCYP) oxidation, remaining parent compound (Cparent-Ratio); settings: for Cparent-Ratio Rep.1 %: Table S9, replicate 1; for Cparent-Ratio Rep.2 %: Table S9, replicate 2
Tox21 assays [3] = settings: cited from earlier work
Tox21 assays [4] = experiment: Re-evaluated Tox21 data (Adamovsky et al.), REPBPA and SRbaseline; settings: for SRbaseline: Specificity Ratio;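 as to all read-outs here: published Tox21 results reanalysed with a revised model predicting baseline toxicity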
Excerpt: We also reanalyzed the Tox21 data of Adamovsky et al. with the updated baseline toxicity prediction model (Table S2).

ERα = settings: ref Pelch et al 2019; cited from earlier work
[5] = Table S9, loss of parent after aCYP oxidation
[6] = Table S9, mean of two replicate experiments
[7] = Table S9, replicate 1, as fraction
[8] = Table S9, replicate 2, as fraction
[9] = Table S11, measured simultaneously with bioassay
[10] = TOX21_PPARg_BLA_antagonist_ratio, re-evaluated Tox21 data, ref Adamovsky et al 2024
[11] = Tox21BLA, ref Adamovsky et al. 2024
[12] = Tox21Luc, ref Adamovsky et al. 2024
[13] = TOX21_PPARg_BLA_antagonist_ratio

SMILES	% Loss [2, 5] [%]	Cparent-Ratio Mean [2, 6]	Cparent-Ratio Rep.1 % [2] [%]	Cparent-Ratio Rep.1 [2, 7]	Cparent-Ratio Rep.2 % [2] [%]	Cparent-Ratio Rep.2 [2, 8]	EC10 (Tox21 assays [3]; [10]) [M]	SRbaseline (Tox21 assays [4]; [13])	further results
CC(C)CC(C)(c1ccc(O)cc1)c1ccc(O)cc1 [BP-MIBK, 4,4'-(1,3-Dimethylbutylidene)diphenol]	–	–	–	–	–	–	–	–	% Loss [1]: 10%
COC(=O)C(c1ccc(O)cc1)c1ccc(O)cc1 [Bz, Methyl bis(4-hydroxyphenyl)acetate]	-7	1.07	113.92	1.14	100.34	1.00	–	–	–
CC(C)c1cc(C(C)(C)c2ccc(O)c(C(C)C)c2)ccc1O [BPG, 2,2-Bis(4-hydroxy-3-isopropylphenyl)propane]	15	0.85	67.85	0.68	102.05	1.02	–	–	% Loss ([2]; Table S11): 34%; Cparent-Ratio Mean [2, 9]: 0.66; Cparent-Ratio Rep.1 [2, 9]: 0.79; Cparent-Ratio Rep.2 [2, 9]: 0.53
CC(c1ccc(O)cc1)c1ccc(O)cc1 [BPE, 4,4′-Ethylidenbisphenol]	–	–	–	–	–	–	1.02e-05	12.24	% Loss [1]: 21%; EC10 (Tox21 assays [3]; TOX21_AR_LUC_MDAKB2_Antagonist_0,5nM_R1881, re-evaluated Tox21 data, ref Adamovsky et al 2024): 1.63e-06 M; EC10 (Tox21 assays [3]; TOX21_CAR_Agonist, re-evaluated Tox21 data, ref Adamovsky et al 2024): 1.04e-05 M; EC10 (Tox21 assays [3]; [11]): 1.36E-06; EC10 (Tox21 assays [3]; [12]): 3.57E-08; REPBPA (Tox21 assays [4]; TOX21_AR_LUC_MDAKB2_Antagonist_0,5nM_R1881, Relative Effect Potency): 1.49; SRbaseline (Tox21 assays [4]; TOX21_AR_LUC_MDAKB2_Antagonist_0,5nM_R1881): 76.62; REPBPA (Tox21 assays [4]; TOX21_CAR_Agonist, Relative Effect Potency): 0.13; SRbaseline (Tox21 assays [4]; TOX21_CAR_Agonist): 11.95; REPBPA (Tox21 assays [4]; [11]): 4.35E-01; REPBPA (Tox21 assays [4]; [12]): 6.37E-01
CC1(C)C(O)C(C)(C)C1O (racemic) [r-TMCD, 2,2,4,4-Tetramethyl-1,3-cyclobutanediol (racemate)]	1.72	0.98	94.58	0.95	101.99	1.02	–	–	–
CC(C)(c1cc(Cl)c(O)c(Cl)c1)c1cc(Cl)c(O)c(Cl)c1 [TCBPA, 2,2',6,6'-Tetrachlorobisphenol A]	–	–	–	–	–	–	4.02e-07	22.07	EC10 (Tox21 assays [3]; ATG_PPARg_TRANS_up, re-evaluated Tox21 data, ref Adamovsky et al 2024): 2.35e-07 M; EC10 (Tox21 assays [3]; ATG_hPPARg_XSP2_up, re-evaluated Tox21 data, ref Adamovsky et al 2024): 4e-07 M; REPBPA (Tox21 assays [4]; ATG_PPARg_TRANS_up, Relative Effect Potency): 6.78; SRbaseline (Tox21 assays [4]; ATG_PPARg_TRANS_up): 37.70; REPBPA (Tox21 assays [4]; ATG_hPPARg_XSP2_up, Relative Effect Potency): 3.23; SRbaseline (Tox21 assays [4]; ATG_hPPARg_XSP2_up): 22.19
CC1(C)[C@H](O)C(C)(C)[C@H]1O [t-TMCD, trans-2,2,4,4-Tetramethyl-1,3-cyclobutanediol]	0.48	1.00	90.48	0.90	108.56	1.09	–	–	–
CC(C)(c1ccc(O)c(-c2ccccc2)c1)c1ccc(O)c(-c2ccccc2)c1 [BPPH, 2,2-Bis(2-hydroxy-5-biphenylyl)propane]	22	0.78	89.82	0.90	66.60	0.67	–	–	Efficacy % (ERα): 27.00%; % Loss ([2]; Table S11): 22%; Cparent-Ratio Mean [2, 9]: 0.78; Cparent-Ratio Rep.1 [2, 9]: 0.78; Cparent-Ratio Rep.2 [2, 9]: 0.78
Oc1ccc(C2(c3ccc(O)cc3)CCCCC2)cc1 [BPZ, 1,1'-Bis(4-hydroxyphenyl)cyclohexane]	12	–	–	–	–	–	1.84e-06	14.87	EC10 (Tox21 assays [3]; TOX21_CAR_Antagonist, re-evaluated Tox21 data, ref Adamovsky et al 2024): 4.58e-07 M; EC10 (Tox21 assays [3]; [12]): 2.65E-08; REPBPA (Tox21 assays [4]; TOX21_CAR_Antagonist, Relative Effect Potency): 1.19; SRbaseline (Tox21 assays [4]; TOX21_CAR_Antagonist): 59.87; REPBPA (Tox21 assays [4]; [12]): 2.90E+00
